Test results as given in ChEMBL document CHEMBL1128850, “Synthesis and qsar of dequalinium analogues AS K+ channel blockers. investigations on the role of the 4-amino group” (Bioorg Med Chem Lett, 1995).

What was measured:
Type in all cases: functional
Rattus norvegicus [1] = organism: Rattus norvegicus; assay: Ratio of the negative logarithmic concentration to that of dequalinium that cause 50% inhibition of the hyperpolarization (AHP)
Rattus norvegicus [2] = organism: Rattus norvegicus; assay: The equi-effective molar ratio of the concentration to that of dequalinium that cause 50% inhibition of the hyperpolarization (AHP)
Rattus norvegicus [3] = organism: Rattus norvegicus; assay: Ability to inhibit the hyperpolarization (AHP) in cultured rat sympathetic neurons; details: Sympathetic neuron

Structure (SMILES) | IC50 (Rattus norvegicus [3]) [nM] | pEMR (Rattus norvegicus [1]) | EMR (Rattus norvegicus [2])
Cc1cc(N)c2ccccc2[n+]1CCCCCCCCCC[n+]1c(C)cc(N)c2ccccc21.[Cl-].[Cl-] [DEQUALINIUM CHLORIDE] | – | 0 | 1
Cc1cc[n+](CCCCCCCCCC[n+]2ccc(C)c3ccccc32)c2ccccc12 | 15000 | -1.41 | 26
c1ccc2c(c1)ccc[n+]2CCCCCCCCCC[n+]1cccc2ccccc21 | – | -1.18 | 15

Now from value to compound, other results behind:

IC50 (Rattus norvegicus [3]) [nM] | Structure (SMILES) | pEMR (Rattus norvegicus [1]) | EMR (Rattus norvegicus [2])
2700 | c1ccc(Oc2cc[n+](CCCCCCCCCC[n+]3ccc(Oc4ccccc4)c4ccccc43)c3ccccc23)cc1 | -0.81 | 6.5
1400 | Nc1cc[n+](CCCCCCCCCC[n+]2ccc(N)c3ccccc32)c2ccccc12 | -0.11 | 1.3
1400 | CN(C)c1cc[n+](CCCCCCCCCC[n+]2ccc(N(C)C)c3ccccc32)c2ccccc12 | -0.15 | 1.4
2400 | c1ccc(Nc2cc[n+](CCCCCCCCCC[n+]3ccc(Nc4ccccc4)c4ccccc43)c3ccccc23)cc1 | -0.53 | 3.4
4500 | CC(=O)Nc1cc[n+](CCCCCCCCCC[n+]2ccc(NC(C)=O)c3ccccc32)c2ccccc12 | -0.74 | 5.5
